Assay results published in patent US6673938B1, “Substituted pyridine herbicides” (Syngenta Participations AG, priority 1998, dated 2004).
Values joined by “and” are separate entries in the source; they are usually repeats but may differ in a detail not shown here. Equal values may be shown once.

What was measured:
[1] = test system: Monocotyledonous and dicotyledonous test plants; assay: Herbicidal action before emergence of the plants (pre-emergence action); type: in vivo; conditions: evaluated after 3 weeks, nine-step scale; for pre-emergence action, Cyperus / pre-emergence action, Ipomoea / pre-emergence action, Setaria / pre-emergence action, Sinapis / pre-emergence action, Solanum / pre-emergence action, Stellaria: 2000 g/ha
Summary of the method: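 Sprayed onto soil immediately after sowing as WP suspension or EC emulsion at 2 kg or 250 g a.i./ha (500 l water/ha). Greenhouse growth for 3 weeks, then scored on a nine-step scale (1 = complete damage, 9 = no effect).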

[2] = test system: Monocotyledonous and dicotyledonous test plants; assay: Post-emergence herbicidal action; type: in vivo; conditions: evaluated after approximately 18 days; for Post-emergence action, Ipomoea / Post-emergence action, Lolium / Post-emergence action, Setaria / Post-emergence action, Sinapis / Post-emergence action, Solanum / Post-emergence action, Stellaria: 2000 g/ha, sprayed in 4- to 6-leaf stage, nine-step scale
Summary of the method: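 Greenhouse plants sprayed at the 4- to 6-leaf stage with test substance as wettable-powder suspension or emulsion-concentrate emulsion, 2 kg or 250 g a.i./ha in 500 l water/ha. Scored after about 18 days on a nine-step scale (1=complete damage, 9=no effect).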

With `CCC1CC(C)(C)C(=O)C(C(=O)c2ccc(C(F)(F)F)nc2C)=C1O` (stereo not drawn) [Compound A2-B1089] the “pre-emergence action, Cyperus” value [1] was 1, the “pre-emergence action, Ipomoea” value [1] was 2 and the “pre-emergence action, Setaria” value [1] was 2. For the same molecule, the “pre-emergence action, Sinapis” value [1] was 2, the “pre-emergence action, Solanum” value [1] was 1 and the “pre-emergence action, Stellaria” value [1] was 2. The “Post-emergence action, Ipomoea” value [2] was 1, the “Post-emergence action, Lolium” value [2] was 2 and the “Post-emergence action, Setaria” value [2] was 2. For the same molecule, the “Post-emergence action, Sinapis” value [2] was 1, the “Post-emergence action, Solanum” value [2] was 1 and the “Post-emergence action, Stellaria” value [2] was 2.
For `Cc1nc(C(F)(F)F)ccc1C(=O)C1=C(O)C(C)C(C)(C)CC1=O` (stereo not drawn) [Compound A2-B1095], the “pre-emergence action, Cyperus” value [1] was 3, the “pre-emergence action, Ipomoea” value [1] was 4 and the “pre-emergence action, Setaria” value [1] was 2. For the same molecule, the “pre-emergence action, Sinapis” value [1] was 2, the “pre-emergence action, Solanum” value [1] was 1 and the “pre-emergence action, Stellaria” value [1] was 2. The “Post-emergence action, Ipomoea” value [2] was 1, the “Post-emergence action, Lolium” value [2] was 2 and the “Post-emergence action, Setaria” value [2] was 4. For the same molecule, the “Post-emergence action, Sinapis” value [2] was 1, the “Post-emergence action, Solanum” value [2] was 2 and the “Post-emergence action, Stellaria” value [2] was 2.
`CCN(CC)CC.Cc1nc(C(F)(F)F)ccc1C(=O)C1=C(O)CCCC1=O` [Compound A2-B1100] was tested, and the “pre-emergence action, Cyperus” value [1] was 1, the “pre-emergence action, Ipomoea” value [1] was 3 and the “pre-emergence action, Setaria” value [1] was 1. The “pre-emergence action, Sinapis” value [1] was 2, the “pre-emergence action, Solanum” value [1] was 1 and the “pre-emergence action, Stellaria” value [1] was 2. For the same molecule, the “Post-emergence action, Ipomoea” value [2] was 2, the “Post-emergence action, Lolium” value [2] was 2 and the “Post-emergence action, Setaria” value [2] was 3. The “Post-emergence action, Sinapis” value [2] was 1, the “Post-emergence action, Solanum” value [2] was 1 and the “Post-emergence action, Stellaria” value [2] was 2.
In the case of `Cc1nc(C(F)(F)F)ccc1C(=O)C1=C(O)CCC2(CC2)C1=O` [Compound A2-C1], the “pre-emergence action, Cyperus” value [1] is reported as 2, the “pre-emergence action, Ipomoea” value [1] is reported as 3 and the “pre-emergence action, Setaria” value [1] is reported as 1. For the same molecule, the “pre-emergence action, Sinapis” value [1] was 2, the “pre-emergence action, Solanum” value [1] was 1 and the “pre-emergence action, Stellaria” value [1] was 2. The “Post-emergence action, Ipomoea” value [2] was 3, the “Post-emergence action, Lolium” value [2] was 2 and the “Post-emergence action, Setaria” value [2] was 2. The “Post-emergence action, Sinapis” value [2] was 1, the “Post-emergence action, Solanum” value [2] was 2 and the “Post-emergence action, Stellaria” value [2] was 2.
`Cc1nc(C(F)(F)F)ccc1C(=O)C1=C(O)C(C)CC2(CC2)C1=O` (stereo not drawn) [Compound A2-C2] was tested, and the “pre-emergence action, Cyperus” value [1] was 2, the “pre-emergence action, Ipomoea” value [1] was 3 and the “pre-emergence action, Setaria” value [1] was 1. The “pre-emergence action, Sinapis” value [1] was 1, the “pre-emergence action, Solanum” value [1] was 1 and the “pre-emergence action, Stellaria” value [1] was 1. The “Post-emergence action, Ipomoea” value [2] was 2, the “Post-emergence action, Lolium” value [2] was 1 and the “Post-emergence action, Setaria” value [2] was 1. For the same molecule, the “Post-emergence action, Sinapis” value [2] was 1, the “Post-emergence action, Solanum” value [2] was 1 and the “Post-emergence action, Stellaria” value [2] was 1.
In the case of `Cc1nc(C(F)(F)F)ccc1C(=O)C1=C(O)C(C)(C)CC2(CC2)C1=O` [Compound A2-C24], the “pre-emergence action, Cyperus” value [1] is reported as 1, the “pre-emergence action, Ipomoea” value [1] is reported as 2 and the “pre-emergence action, Setaria” value [1] is reported as 1. The “pre-emergence action, Sinapis” value [1] was 1, the “pre-emergence action, Solanum” value [1] was 1 and the “pre-emergence action, Stellaria” value [1] was 2. The “Post-emergence action, Ipomoea” value [2] was 1, the “Post-emergence action, Lolium” value [2] was 1 and the “Post-emergence action, Setaria” value [2] was 1. For the same molecule, the “Post-emergence action, Sinapis” value [2] was 1, the “Post-emergence action, Solanum” value [2] was 1 and the “Post-emergence action, Stellaria” value [2] was 1.
With `Cc1nc(C(F)(F)F)ccc1C(=O)C1=C(O)CCC2(CCC2)C1=O` [Compound A2-C146] the “pre-emergence action, Cyperus” value [1] was 1, the “pre-emergence action, Ipomoea” value [1] was 2 and the “pre-emergence action, Setaria” value [1] was 2. For the same molecule, the “pre-emergence action, Sinapis” value [1] was 2, the “pre-emergence action, Solanum” value [1] was 1 and the “pre-emergence action, Stellaria” value [1] was 2. The “Post-emergence action, Ipomoea” value [2] was 1, the “Post-emergence action, Lolium” value [2] was 2 and the “Post-emergence action, Setaria” value [2] was 2. The “Post-emergence action, Sinapis” value [2] was 1, the “Post-emergence action, Solanum” value [2] was 2 and the “Post-emergence action, Stellaria” value [2] was 2.
`Cc1nc(C(F)(F)F)ccc1C(=O)C1=C(O)C(C)(C)CC2(CCC2)C1=O` [Compound A2-C147] was tested, and the “pre-emergence action, Cyperus” value [1] was 2, the “pre-emergence action, Ipomoea” value [1] was 4 and the “pre-emergence action, Setaria” value [1] was 2. The “pre-emergence action, Sinapis” value [1] was 2, the “pre-emergence action, Solanum” value [1] was 2 and the “pre-emergence action, Stellaria” value [1] was 2. The “Post-emergence action, Ipomoea” value [2] was 1, the “Post-emergence action, Lolium” value [2] was 2 and the “Post-emergence action, Setaria” value [2] was 2. For the same molecule, the “Post-emergence action, Sinapis” value [2] was 1, the “Post-emergence action, Solanum” value [2] was 2 and the “Post-emergence action, Stellaria” value [2] was 2.
With `Cc1nc(C(F)(F)F)ccc1C(=O)C1=C(O)C(C)CC2(CCC2)C1=O` (stereo not drawn) [Compound A2-C152] the “pre-emergence action, Cyperus” value [1] was 1, the “pre-emergence action, Ipomoea” value [1] was 1 and the “pre-emergence action, Setaria” value [1] was 2. The “pre-emergence action, Sinapis” value [1] was 2, the “pre-emergence action, Solanum” value [1] was 1 and the “pre-emergence action, Stellaria” value [1] was 2. The “Post-emergence action, Ipomoea” value [2] was 2, the “Post-emergence action, Lolium” value [2] was 2 and the “Post-emergence action, Setaria” value [2] was 3. The “Post-emergence action, Sinapis” value [2] was 1, the “Post-emergence action, Solanum” value [2] was 2 and the “Post-emergence action, Stellaria” value [2] was 2.
`Cc1nc(C(F)(F)F)ccc1C(=O)C1=C(O)CC2CCCC2C1=O` (stereo not drawn) [Compound A2-D36] was tested, and the “pre-emergence action, Cyperus” value [1] was 1, the “pre-emergence action, Ipomoea” value [1] was 2 and the “pre-emergence action, Setaria” value [1] was 2 and 1. The “pre-emergence action, Sinapis” value [1] was 2, the “pre-emergence action, Stellaria” value [1] was 1 and the “Post-emergence action, Ipomoea” value [2] was 2. For the same molecule, the “Post-emergence action, Lolium” value [2] was 2 and 1, the “Post-emergence action, Setaria” value [2] was 2 and 1 and the “Post-emergence action, Sinapis” value [2] was 1. The “Post-emergence action, Solanum” value [2] was 2 and 1 and the “Post-emergence action, Stellaria” value [2] was 2 and 1.
With `Cc1nc(C(F)(F)F)ccc1C(=O)C1=C(O)C(C)(S(C)(=O)=O)C2CC2C1=O` (stereo not drawn) [Compound A2-D115] the “pre-emergence action, Cyperus” value [1] was 3, the “pre-emergence action, Ipomoea” value [1] was 3 and the “pre-emergence action, Setaria” value [1] was 2. The “pre-emergence action, Sinapis” value [1] was 2, the “pre-emergence action, Solanum” value [1] was 2 and the “pre-emergence action, Stellaria” value [1] was 3. For the same molecule, the “Post-emergence action, Ipomoea” value [2] was 1, the “Post-emergence action, Lolium” value [2] was 2 and the “Post-emergence action, Setaria” value [2] was 1. For the same molecule, the “Post-emergence action, Sinapis” value [2] was 1, the “Post-emergence action, Solanum” value [2] was 1 and the “Post-emergence action, Stellaria” value [2] was 1.
For `CCc1nc(C(F)(F)F)ccc1C(=O)C1=C(O)CCCC1=O` [Compound A3-B1], the “pre-emergence action, Cyperus” value [1] was 2, the “pre-emergence action, Ipomoea” value [1] was 2 and the “pre-emergence action, Setaria” value [1] was 4. For the same molecule, the “pre-emergence action, Sinapis” value [1] was 2, the “pre-emergence action, Solanum” value [1] was 3 and the “pre-emergence action, Stellaria” value [1] was 2. For the same molecule, the “Post-emergence action, Ipomoea” value [2] was 1, the “Post-emergence action, Lolium” value [2] was 3 and the “Post-emergence action, Setaria” value [2] was 2. The “Post-emergence action, Sinapis” value [2] was 1, the “Post-emergence action, Solanum” value [2] was 1 and the “Post-emergence action, Stellaria” value [2] was 2.
In the case of `CCc1nc(C(F)(F)F)ccc1C(=O)C1=C(O)C(C)(C)CCC1=O` [Compound A3-B24], the “pre-emergence action, Cyperus” value [1] is reported as 1, the “pre-emergence action, Ipomoea” value [1] is reported as 3 and the “pre-emergence action, Setaria” value [1] is reported as 2. For the same molecule, the “pre-emergence action, Sinapis” value [1] was 2, the “pre-emergence action, Solanum” value [1] was 1 and the “pre-emergence action, Stellaria” value [1] was 2. The “Post-emergence action, Ipomoea” value [2] was 2, the “Post-emergence action, Lolium” value [2] was 2 and the “Post-emergence action, Setaria” value [2] was 2. For the same molecule, the “Post-emergence action, Sinapis” value [2] was 1, the “Post-emergence action, Solanum” value [2] was 2 and the “Post-emergence action, Stellaria” value [2] was 2.
For `COCc1nc(C(F)(F)F)ccc1C(=O)C1=C(O)CCCC1=O` [Compound A8-B1], the “Pre-emergence action, Abutilon” value ([1]; Abutilon, 250 g/ha) was 1, the “Pre-emergence action, Amaranthus” value ([1]; Amaranthus, 250 g/ha) was 1 and the “Pre-emergence action, Chenop.” value ([1]; Chenop., 250 g/ha) was 1. The “Pre-emergence action, Digitaria” value ([1]; Digitaria, 250 g/ha) was 2, the “Pre-emergence action, Echino.” value ([1]; Echino., 250 g/ha) was 2 and the “Pre-emergence action, Panicum” value ([1]; Panicum, 250 g/ha) was 2. The “Post-emergence action: Abutilon (score, nine-step scale)” value ([2]; Abutilon, 250 g/ha, sprayed at 4- to 6-leaf stage) was 3, the “Post-emergence action: Chenop. (score, nine-step scale)” value ([2]; Chenop., 250 g/ha, sprayed at 4- to 6-leaf stage) was 2 and the “Post-emergence action: Digitaria (score, nine-step scale)” value ([2]; Digitaria, 250 g/ha, sprayed at 4- to 6-leaf stage) was 3. For the same molecule, the “Post-emergence action: Echino. (score, nine-step scale)” value ([2]; Echino., 250 g/ha, sprayed at 4- to 6-leaf stage) was 3, the “Post-emergence action: Ipopur. (score, nine-step scale)” value ([2]; Ipopur., 250 g/ha, sprayed at 4- to 6-leaf stage) was 3 and the “Post-emergence action: Panicum (score, nine-step scale)” value ([2]; Panicum, 250 g/ha, sprayed at 4- to 6-leaf stage) was 4. The “Post-emergence action: Xanth. (score, nine-step scale)” value ([2]; Xanth., 250 g/ha, sprayed at 4- to 6-leaf stage) was 3.
For `COCc1nc(C(F)(F)F)ccc1C(=O)C1=C(O)C(C)CCC1=O` (stereo not drawn) [Compound A8-B2], the “pre-emergence action, Cyperus” value [1] was 1, the “pre-emergence action, Ipomoea” value [1] was 3 and the “pre-emergence action, Setaria” value [1] was 2. For the same molecule, the “pre-emergence action, Sinapis” value [1] was 2, the “pre-emergence action, Solanum” value [1] was 1 and the “pre-emergence action, Stellaria” value [1] was 2. For the same molecule, the “Post-emergence action, Ipomoea” value [2] was 2, the “Post-emergence action, Lolium” value [2] was 2 and the “Post-emergence action, Setaria” value [2] was 2. The “Post-emergence action, Sinapis” value [2] was 2, the “Post-emergence action, Solanum” value [2] was 2 and the “Post-emergence action, Stellaria” value [2] was 3.
